According to the NIST ThermoML archive (doi:10.1016/j.tca.2006.05.010):

What was measured:
[1] = refractive index (Na D-line) (dimensionless); conditions: 101.33 kPa, Liquid, Standard Abbe refractometry
[2] = molar heat capacity at constant pressure; conditions: 101.33 kPa, Liquid, Small sample (50 mg) DSC
[3] = 101.33 kPa, Liquid, Vibrating tube method
[4] = molar heat capacity at constant pressure; xn = mol fraction of the nth substance listed; conditions: 308.15 K, 101 kPa, Liquid, Small sample (50 mg) DSC
[5] = excess molar enthalpy (molar enthalpy of mixing); xn = mol fraction of the nth substance listed; conditions: 308.15 K, 101 kPa, Liquid, Flow calorimetry

CCOCCOCC [1,2-diethoxyethane]
Conditions	mass density, [3] [kg/m3]	molar heat capacity at constant pressure, [2] [J/K/mol]	refractive index, [1]
288.15 K	–	254.5	–
293.15 K	–	255.3	–
298.15 K	835.11	257.5	1.3897
303.15 K	–	257.9	–
308.15 K	826.026	258.7	1.3853
313.15 K	–	259.5	–
318.15 K	–	261.2	–
323.15 K	–	262.9	–

CCOCCOCC [1,2-diethoxyethane] + C[S+](C)[O-]
Conditions	excess molar enthalpy [kcal/mol]	molar heat capacity at constant pressure [J/K/mol]
[4], x2 = 0.0627	–	252.8
[4], x2 = 0.1317	–	246
[4], x2 = 0.1895	–	240.7
[4], x2 = 0.35	–	225
[4], x2 = 0.4563	–	214.4
[4], x2 = 0.5642	–	203.2
[4], x2 = 0.635	–	195.8
[4], x2 = 0.6718	–	191.9
[4], x2 = 0.7514	–	183.1
[4], x2 = 0.8274	–	174.7
[4], x2 = 0.8881	–	167.7
[4], x2 = 0.941	–	161.6
[5], x2 = 0.0765	0.0817	–
[5], x2 = 0.1421	0.127	–
[5], x2 = 0.199	0.155	–
[5], x2 = 0.2488	0.172	–
[5], x2 = 0.332	0.192	–
[5], x2 = 0.3986	0.201	–
[5], x2 = 0.4985	0.213	–
[5], x2 = 0.5698	0.211	–
[5], x2 = 0.6653	0.2	–
[5], x2 = 0.7489	0.174	–
[5], x2 = 0.799	0.152	–
[5], x2 = 0.8564	0.12	–
[5], x2 = 0.8883	0.0949	–
[5], x2 = 0.9227	0.07	–
[5], x2 = 0.9408	0.0586	–
[5], x2 = 0.9598	0.0382	–
[5], x2 = 0.9795	0.0198	–

COCCOC [1,2-dimethoxyethane]
Conditions	mass density, [3] [kg/m3]	molar heat capacity at constant pressure, [2] [J/K/mol]	refractive index, [1]
288.15 K	–	188.7	–
293.15 K	–	189	–
298.15 K	861.9	191	1.3781
303.15 K	–	192.2	–
308.15 K	851.28	193.4	1.3726
313.15 K	–	194.5	–
318.15 K	–	195.8	–
323.15 K	–	196.9	–

COCCOC [1,2-dimethoxyethane] + C[S+](C)[O-]
Conditions	excess molar enthalpy [kcal/mol]	molar heat capacity at constant pressure [J/K/mol]
[4], x2 = 0.1017	–	188.6
[4], x2 = 0.1471	–	186.5
[4], x2 = 0.2718	–	180.8
[4], x2 = 0.3811	–	175.8
[4], x2 = 0.4923	–	170.8
[4], x2 = 0.5507	–	168.3
[4], x2 = 0.5831	–	166.9
[4], x2 = 0.677	–	163.1
[4], x2 = 0.7788	–	159.4
[4], x2 = 0.8414	–	157.6
[4], x2 = 0.9315	–	155.5
[4], x2 = 0.9626	–	155
[5], x2 = 0.0577	0.0184	–
[5], x2 = 0.1092	0.0339	–
[5], x2 = 0.1553	0.0461	–
[5], x2 = 0.1969	0.0552	–
[5], x2 = 0.2689	0.0681	–
[5], x2 = 0.329	0.0779	–
[5], x2 = 0.4238	0.0863	–
[5], x2 = 0.495	0.0875	–
[5], x2 = 0.5953	0.087	–
[5], x2 = 0.6882	0.0808	–
[5], x2 = 0.7463	0.0755	–
[5], x2 = 0.8153	0.0633	–
[5], x2 = 0.8547	0.055	–
[5], x2 = 0.8982	0.0435	–
[5], x2 = 0.9217	0.0339	–
[5], x2 = 0.9464	0.0251	–
[5], x2 = 0.9725	0.0136	–

C1COCO1 [1,3-dioxolane]
Conditions	mass density [kg/m3]	molar heat capacity at constant pressure [J/K/mol]	refractive index
[1], 298.15 K	–	–	1.3983
[1], 308.15 K	–	–	1.3934
[2], 288.15 K	–	118.8	–
[2], 293.15 K	–	120.3	–
[2], 298.15 K	–	121.7	–
[2], 303.15 K	–	123.3	–
[2], 308.15 K	–	124.4	–
[2], 313.15 K	–	125.3	–
[2], 318.15 K	–	126.8	–
[2], 323.15 K	–	128.1	–
[2], 328.15 K	–	129.5	–
[3], 298.15 K	1058.79	–	–
[3], 308.15 K	1046.4	–	–

C1COCO1 [1,3-dioxolane] + C[S+](C)[O-]
Conditions	excess molar enthalpy [kcal/mol]	molar heat capacity at constant pressure [J/K/mol]
[4], x2 = 0.0532	–	125.2
[4], x2 = 0.1036	–	126.2
[4], x2 = 0.1897	–	128.2
[4], x2 = 0.3044	–	131.3
[4], x2 = 0.3922	–	133.9
[4], x2 = 0.5058	–	137.3
[4], x2 = 0.5455	–	138.5
[4], x2 = 0.5936	–	139.9
[4], x2 = 0.7053	–	143.4
[4], x2 = 0.781	–	145.9
[4], x2 = 0.9015	–	150.3
[4], x2 = 0.9431	–	152
[5], x2 = 0.0394	0.0146	–
[5], x2 = 0.0757	0.0256	–
[5], x2 = 0.1095	0.0335	–
[5], x2 = 0.1408	0.0409	–
[5], x2 = 0.1974	0.0478	–
[5], x2 = 0.2469	0.054	–
[5], x2 = 0.3297	0.0598	–
[5], x2 = 0.3959	0.0629	–
[5], x2 = 0.4959	0.0648	–
[5], x2 = 0.5961	0.0631	–
[5], x2 = 0.663	0.0609	–
[5], x2 = 0.7469	0.0562	–
[5], x2 = 0.7973	0.0519	–
[5], x2 = 0.8551	0.0428	–
[5], x2 = 0.8872	0.0354	–
[5], x2 = 0.9219	0.0268	–
[5], x2 = 0.9594	0.0155	–

C1COCCO1 [1,4-dioxane]
Conditions	mass density [kg/m3]	molar heat capacity at constant pressure [J/K/mol]	refractive index
[1], 298.15 K	–	–	1.4202
[1], 308.15 K	–	–	1.4154
[2], 288.15 K	–	146.7	–
[2], 293.15 K	–	150	–
[2], 298.15 K	–	151	–
[2], 303.15 K	–	152.1	–
[2], 308.15 K	–	153.7	–
[2], 313.15 K	–	155.3	–
[2], 318.15 K	–	156.5	–
[2], 323.15 K	–	158.4	–
[2], 328.15 K	–	160.2	–
[2], 333.15 K	–	160.4	–
[3], 298.15 K	1027.96	–	–
[3], 308.15 K	1016.99	–	–
